According to patent US20220144775A1, “HYDRAZIDE COMPOUND AND KINASE INHIBITOR” (NISSAN CHEMICAL CORPORATION, priority 2019, published 2022):

Legend:
[1] = biological target: T1, LATS2 (Homo sapiens, UniProt Q9NRM7); assay: Kinase inhibitory activity against LATS2 (ADP quantification); type: biochemical; details: ATP 400 μM, read-out: kinase inhibitory rate
T1 construct: purchased Carna Biosciences
T1 sequence (Q9NRM7 1-1088): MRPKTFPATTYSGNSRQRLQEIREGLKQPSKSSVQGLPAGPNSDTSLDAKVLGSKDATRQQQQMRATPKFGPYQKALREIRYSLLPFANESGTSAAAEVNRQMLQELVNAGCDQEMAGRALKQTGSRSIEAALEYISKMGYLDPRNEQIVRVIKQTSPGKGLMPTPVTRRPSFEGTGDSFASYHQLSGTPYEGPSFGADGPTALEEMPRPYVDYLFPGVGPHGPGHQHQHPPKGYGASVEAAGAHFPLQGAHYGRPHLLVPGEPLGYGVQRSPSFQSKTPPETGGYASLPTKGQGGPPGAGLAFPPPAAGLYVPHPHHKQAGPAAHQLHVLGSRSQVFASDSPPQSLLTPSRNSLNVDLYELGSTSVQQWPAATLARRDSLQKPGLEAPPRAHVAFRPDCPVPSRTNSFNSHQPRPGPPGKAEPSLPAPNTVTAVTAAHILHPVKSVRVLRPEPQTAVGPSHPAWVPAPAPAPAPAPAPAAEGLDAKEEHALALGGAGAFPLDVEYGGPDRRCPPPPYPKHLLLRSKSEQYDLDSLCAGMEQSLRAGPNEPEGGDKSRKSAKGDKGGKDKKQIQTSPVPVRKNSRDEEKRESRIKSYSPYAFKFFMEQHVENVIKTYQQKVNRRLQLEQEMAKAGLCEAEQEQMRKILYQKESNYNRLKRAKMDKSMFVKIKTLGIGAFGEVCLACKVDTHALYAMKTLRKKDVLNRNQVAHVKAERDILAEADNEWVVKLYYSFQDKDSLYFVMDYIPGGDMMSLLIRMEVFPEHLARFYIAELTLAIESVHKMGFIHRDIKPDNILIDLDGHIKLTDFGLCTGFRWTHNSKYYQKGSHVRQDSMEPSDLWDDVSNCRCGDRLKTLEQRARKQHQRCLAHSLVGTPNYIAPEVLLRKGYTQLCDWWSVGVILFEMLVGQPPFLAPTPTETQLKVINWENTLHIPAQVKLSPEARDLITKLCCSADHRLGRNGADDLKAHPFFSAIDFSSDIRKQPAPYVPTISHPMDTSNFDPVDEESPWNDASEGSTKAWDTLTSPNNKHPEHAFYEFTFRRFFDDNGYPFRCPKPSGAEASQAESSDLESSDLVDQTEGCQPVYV
Method: (§1) Evaluation of the inhibitory activity (calculation of kinase inhibitory rate) of the compound of the present invention against LATS1 and LATS2 (manufactured by Carna Biosciences) was performed. The activity was measured using the Kinase Assay method described below. The test concentration of the compound of the present invention was set such that the final concentration was 100 nM or 1000 nM.
(§2) As the analysis method of the data, the mean signal of the control well containing reaction components other than the compound of the present invention was set to 0% inhibition, the mean signal without enzyme addition was set to 100% inhibition, and the inhibition rate was calculated from the mean signal of 2 wells of each compound.
(§3) 2 μL of a compound of the present invention solution at 2.5-fold concentration, 1 μL of substrate at 5-fold concentration (SGKtide: NH2-CKKRNRRLSVA-COOH, manufactured by SignalChem), ATP (manufactured by Sigma-Aldrich), MgCl2 (manufactured by FUJIFILM Wako Pure Chemical Corporation) solution (final concentration 10 μM, 400 μM and 5 mM, respectively), and 2 μL of kinase solution at 2.5-fold concentration (final concentration of LATS1 or LATS2 5 μg/mL), each prepared with assay buffer (20 mM HEPES, 0.01% Triton X-100, 2 mM DTT, 50 μg/mL BSA, pH 7.5), were mixed in the wells of a polypropylene 384-well plate (manufactured by Greiner Bio-One, #784900) and reacted at room temperature for 5 hr. To the solution was added 5 μL detection solution [Fluorospark (registered trade mark) Kinase/ADP Multi-Assay Kit; manufactured by FUJIFILM Wako Pure Chemical Corporation], and the mixture was reacted at room temperature for 30 min. Successively, 5 μL of a reaction quenching liquid [Fluorospark (registered trade mark) Kinase/ADP Multi-Assay Kit; manufactured by FUJIFILM Wako Pure Chemical Corporation] was added to discontinue the reaction. Thereafter, the ADP concentration of the reaction solution was quantified by EnSpire (manufactured by PerkinElmer) to detect the kinase reaction.

[2] = biological target: T2, LATS1 (Homo sapiens, UniProt O95835); assay: Kinase inhibitory activity against LATS1 (ADP quantification); type: biochemical; details: ATP 400 μM, read-out: kinase inhibitory rate
T2 construct: purchased Carna Biosciences
T2 sequence (O95835 1-1130): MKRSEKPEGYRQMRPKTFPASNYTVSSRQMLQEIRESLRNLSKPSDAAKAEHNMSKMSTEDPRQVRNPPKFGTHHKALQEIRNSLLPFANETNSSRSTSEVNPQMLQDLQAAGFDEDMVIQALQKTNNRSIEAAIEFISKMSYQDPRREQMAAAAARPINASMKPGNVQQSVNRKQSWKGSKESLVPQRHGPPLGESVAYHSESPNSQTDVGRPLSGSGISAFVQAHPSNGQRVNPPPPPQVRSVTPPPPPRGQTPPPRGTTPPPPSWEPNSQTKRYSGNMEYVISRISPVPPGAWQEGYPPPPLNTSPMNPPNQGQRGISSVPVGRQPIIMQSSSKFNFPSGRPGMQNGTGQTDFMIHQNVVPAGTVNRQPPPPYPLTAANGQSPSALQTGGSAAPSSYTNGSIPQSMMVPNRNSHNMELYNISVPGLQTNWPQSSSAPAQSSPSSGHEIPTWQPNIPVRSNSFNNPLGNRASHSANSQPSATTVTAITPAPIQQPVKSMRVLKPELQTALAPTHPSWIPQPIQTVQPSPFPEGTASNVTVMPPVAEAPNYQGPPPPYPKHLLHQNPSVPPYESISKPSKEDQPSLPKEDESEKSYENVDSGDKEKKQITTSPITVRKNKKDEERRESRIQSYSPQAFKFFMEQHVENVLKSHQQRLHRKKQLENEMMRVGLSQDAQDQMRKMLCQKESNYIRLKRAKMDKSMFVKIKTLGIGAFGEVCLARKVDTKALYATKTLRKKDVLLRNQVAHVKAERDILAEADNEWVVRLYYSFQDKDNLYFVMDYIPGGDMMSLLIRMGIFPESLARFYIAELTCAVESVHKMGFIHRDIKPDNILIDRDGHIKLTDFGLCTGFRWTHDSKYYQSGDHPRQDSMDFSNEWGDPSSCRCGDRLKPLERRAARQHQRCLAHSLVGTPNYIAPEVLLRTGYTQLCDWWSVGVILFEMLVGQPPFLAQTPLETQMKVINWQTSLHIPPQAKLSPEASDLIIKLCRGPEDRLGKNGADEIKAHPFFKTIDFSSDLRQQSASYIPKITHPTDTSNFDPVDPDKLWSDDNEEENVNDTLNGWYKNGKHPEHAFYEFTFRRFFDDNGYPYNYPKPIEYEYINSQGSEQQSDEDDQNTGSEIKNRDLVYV
Method: as §1, §2, §3

CC/C(=N\NC(=O)C(C)Nc1cccnc1)c1ccc(O)c(C)c1O (stereo not shown) [A-004, (E)-N′-(1-(2,4-dihydroxy-3-methylphenyl)propylidene)-2-(pyridin-3-ylamino)propanehydrazide]
≥ 40%: inhibition at 0.1 µM ([1]; final concentration 100 nM) | inhibition at 1 µM ([1]; final concentration 1000 nM) | inhibition at 0.1 µM ([2]; final concentration 100 nM) | inhibition at 1 µM ([2]; final concentration 1000 nM)
